The text below walks through data of patent US20240002398A1, “COMPLEX, AND USE THEREOF” (RIKEN, priority 2020, published 2024).

The subject of data set [1] is A549 xenograft tumors. The data set can be described thus: A549 tumor bearing mice xenograft model, intratumoral administration (Example 6). The note with it: 12 times in consecutive days, mitomycin C 1.8 mg/kg, MMC-ABC 3.1 mg/kg, FIGS. 13 and 15.
Description: For all intratumoral injections and tumor measurements, mice were anesthetized with 2% isoflurane in oxygen at a 2.5-3.0 L/min flow rate.
A549 cells were obtained from stock lines kept in liquid nitrogen. These cells were cultured in Dulbeccos's modified eagle's medium (DMEM) (manufactured by FUJIFILM Wako Pure Chemical Corporation) supplemented with 10% fetal bovine serum (FBS) (manufactured by BioWest) and 1% penicillin-streptomycin (manufactured by Gibco). The cells were then incubated at 37° C. in a 5% CO2 humidified atmosphere.
A549 xenograft tumors were established in 6-week-old female nude mice BALB/cAJc1-nu/nu by subcutaneous injection of a suspension of 2.5-6.0×10^6 cells in 100 μL of cold 50% matrigel in unnourished DMEM into the right and left shoulders, and tumor growth was monitored. The mice were kept in controlled temperature, salinity, and aeration room with sufficient food and water for 12 hours day and 12 hours night. […]
The administrations were repeated 12 times in consecutive days with the same doses. The tumor volume and body weight of the mice were recorded every day based on an equation: V=W^2×L/2, where W and L represented the minor length and major length of the tumor, respectively. When the tumor reached 2,000 mm^3, the mice were sacrificed, and the survival rates were calculated using the Kaplan Meier method. […]
A further data set has as its system MCF10A. The data set can be described thus: ATP assay (cytotoxicity assay), DOX-ABC and DOX. The note with it: 0.05-50 μM, 48 hours at 37° C., FIG. 16.
Another data set deals with A549. Put plainly: ATP assay (cytotoxicity assay), DOX-ABC and DOX. The note with it: A549, 0.05-50 μM, 48 hours at 37° C., FIG. 16.
For a further data set, the system named is HeLa S3. The data set can be described thus: ATP assay (cytotoxicity assay), DOX-ABC and DOX. The conditions noted are these: HeLa S3, 0.05-50 μM, 48 hours at 37° C., FIG. 16.
The test system of data set [2] is A549 xenograft tumors. Put plainly: A549 tumor bearing mice xenograft model, intratumoral administration (Example 8). The note with it: for tumor growth (tumor size): intratumoral 10 μL, 4 times on days 0, 4, 7 and 11, FIGS. 17 and 18; for survival rate: intratumoral, at and after the fourth administration, Kaplan Meier, FIG. 19.
Description: The prepared mice were randomized, divided into three groups, and treated with the prodrugs and controls. Group 1 was intratumorally injected with 10 μL of compound 9 produced in Production Example 5 as a control (n=10). Group 2 was intratumorally injected with 10 μL of doxorubicin (n=10).
Administrations were conducted 4 times in total on days 0, 4, 7, and 11 with the same doses. The tumor volumes of the mice were recorded every day based on an equation: V=W^2×L/2, where W and L represented the minor length and major length of the tumor, respectively. When the tumor reached 2,000 mm^3, the mice were sacrificed, and the survival rates were calculated using the Kaplan Meier method.
Data set [3] has as its system A549 xenograft tumors. The data set can be described thus: A549 tumor bearing mice xenograft model, intratumoral administration (Example 9). In kind it is in vivo. The note with it: intratumoral 10 μL, 4 times on days 0, 4, 7 and 11; FIG. 20.
A short description of data set [4]: Fluorescence spectra in water (0.2% DMSO). The format is physicochemical. The note with it: 2 μM in water (0.2% DMSO), FIG. 1. From the text:
The results are shown in FIG. 1 (dashed line: compound 7, solid line: control compound).

Data set [5] deals with A549 (human lung adenocarcinoma cells). Put plainly: Fluorescence release, cell-based assay, concentration-dependent. The conditions noted are these: FIG. 4. From the text: (§1) Fluorescence intensity was normalized for each cell line by the number of 10,000 cells.
Data set [6] has as its system HeLa S3 (human cervical cancer cells). The description is as above. The note with it: FIG. 5.
Description: as §1

Data set [7] concerns MCF10A (normal human mammary cells). The data set is described as above. The note with it: 2-20 μM, FIG. 3.
Description: as §1

Data set [8] concerns A549 (human lung adenocarcinoma cells). Put plainly: Fluorescence release, cell-based assay, time-dependent. The conditions noted are these: A549, 2 μM or 20 μM, real-time 30 minutes, FIGS. 6 and 7. As for the experimental part: (§2) Fluorescence intensity was normalized for each cell line by the number of 10,000 cells. Results are shown in FIG. 6 (2 μM) and FIG. 7 (20 μM).
In data set [9] the test system is HeLa S3 (human cervical cancer cells). The description is as above. The note with it: HeLa S3, 2 μM or 20 μM, real-time 30 minutes, FIGS. 6 and 7. As for the experimental part: as §2
For data set [10], the system named is MCF10A (normal human mammary cells). Described as above. The note with it: 2 μM or 20 μM, real-time 30 minutes, FIGS. 6 and 7. As for the experimental part:
as §2

Data set [11] can be described thus: Fluorescence release, HPLC analysis of mixture with glutathione. The note with it: 20 μM in DMSO, GSH 1.0 eq, FIG. 8. In kind it is physicochemical. The method, then: (§3) To a solution of coumarin-ABC (compound 7) (2×10^−5 mmol, 1.0 eq) in DMSO (1 mL, [compound 7]=20 μM) was added glutathione (GSH) (2×10^−5 mmol, 1.0 eq) or acrolein (2×10^−5 mmol, 1.0 eq). The reaction liquid was stirred and the reaction mixture was subjected to HPLC analysis at different time intervals (30 minutes, 1 hour, 2 hours, 4 hours, and 12 hours). Conditions of reversed-phase HPLC were as follows: Column, Cosmosil 5C18-AR300 (manufactured by Nacalai Tesque, Inc.) 4.6×250 mm; Mobile phase A, 0.1% TFA in H2O; Mobile phase B, 0.1% TFA in CH3CN; Gradient elution, 0-4 min at 65% B, 4-14 min at 65-95% B, 14-20 min at 95% B; Flow rate at 1 mL/min; Fluorescence detection at 360/450 nm; Amount per injection 6 μL. Results are shown in FIG. 8 (GSH) and FIG. 9 (acrolein).

Data set [12] can be described thus: Fluorescence release, HPLC analysis of mixture with acrolein. The note with it: 20 μM in DMSO, acrolein 1.0 eq, FIG. 9. In kind it is physicochemical. As for the experimental part: as §3

Turning to `CO[C@@]12[C@H](COC(N)=O)C3=C(C(=O)C(C)=C(N)C3=O)N1C[C@@H]1N[C@@H]12` [mitomycin C], in the data set on A549 xenograft tumors [1], the side effect entry is listed as “inflammation on the whole body”.
For the compound `COc1cccc2c1C(=O)c1c(O)c3c(c(O)c1C2=O)C[C@@](O)(C(=O)CO)C[C@@H]3O[C@H]1C[C@H](NC(=O)OCc2cc(C(C)C)c(N=[N+]=[N-])c(C(C)C)c2)[C@H](O)[C@H](C)O1` [DOX-ABC], the “cytotoxicity (cell viability)” value in the data set on MCF10A, in the data set on A549 and in the data set with HeLa S3 was “released free DOX specifically in cancer cells” in each case. Moreover, the “tumor growth (tumor size)” value with A549 xenograft tumors [2] is recorded as “effective with respect to the tumor growth”. This compound also showed a survival rate in the data set with A549 xenograft tumors [2] of 100%.
As to `COc1ccc(CC(NC(=O)OCc2cc(C(C)C)c(N=[N+]=[N-])c(C(C)C)c2)C(=O)NC2C(O)[C@H](n3cnc4c(N(C)C)ncnc43)O[C@@H]2CO)cc1` (some centres unmarked) [PUR-ABC], the tumor growth result in the data set on A549 xenograft tumors [3] is given as “effective with respect to the tumor growth”.
With `Cc1cc(=O)oc2cc(NC(=O)OCc3cc(C(C)C)c(N=[N+]=[N-])c(C(C)C)c3)ccc12` [coumarin-ABC], in data set [4], the fluorescence emission result is recorded as “did not emit fluorescence”. In addition, the release of fluorescence result is listed as “notably observed” in [5] (A549, 2-20 μM, 60 minutes at room temperature, no NAc-Cys (conditions 1 and 3)); “low” in [5] (A549, pre-treated with 1 mM N-acetyl cysteine 2 hours (condition 2), 2-20 μM, 60 minutes); “notably observed” in data set [6] (HeLa S3, 2-20 μM, 60 minutes at room temperature, no NAc-Cys (conditions 1 and 3)); “low” in data set [6] (HeLa S3, pre-treated with 1 mM N-acetyl cysteine 2 hours (condition 2), 2-20 μM, 60 minutes); “hardly observed” in data set [7] (60 minutes at room temperature, no NAc-Cys (conditions 1 and 3)); “hardly observed” in data set [7] (pre-treated with 1 mM N-acetyl cysteine 2 hours (condition 2), 60 minutes). The results for the release of fluorescence entry in [8], in data set [9] and in [10] were “notably observed depending on the time”, “notably observed depending on the time” and “only slightly observed”, respectively. Also, the “reaction with glutathione (GSH)” value in [11] is listed as “did not react with each other”. Also, the “state of the compound in the mixture with GSH” value in [11] (left for 12 hours) is given as “did not change”. The reaction with acrolein entry in data set [12] is on record as “rapidly reacted with each other”.
In the case of `Cc1cc(C(C)C)c(N=[N+]=[N-])c(C(C)C)c1` [compound 9, 2-azido-1,3-diisopropyl-5-methylbenzene], in the data set with A549 xenograft tumors [2], the “tumor growth (tumor size)” value is recorded as “larger tumor size”.
For the compound `COc1cccc2c1C(=O)c1c(O)c3c(c(O)c1C2=O)C[C@@](O)(C(=O)CO)C[C@@H]3O[C@H]1C[C@H](N)[C@H](O)[C@H](C)O1` [doxorubicin, reference compound], the “cytotoxicity (cell viability)” value in the data set on MCF10A was “nonspecifically exhibited cytotoxicity toward normal cells and cancer cells”; in the data set on A549 it was “nonspecifically exhibited cytotoxicity toward normal cells and cancer cells”; in the data set with HeLa S3 it was “nonspecifically exhibited cytotoxicity toward normal cells and cancer cells”. Further, the “tumor growth (tumor size)” value in the data set on A549 xenograft tumors [2] is reported as “effective with respect to the tumor growth”. Besides, in the data set with A549 xenograft tumors [2], the survival rate result is reported as “suddenly decreased”.
